Assay results from article PMC6399515 (Insect Biochemistry and Molecular Biology, 2016).

Experiments:
CYP6M2 = CYP6M2 (Anopheles gambiae, UniProt Q7Q449)
CYP6P2 = target: T1, CYP6P2 (Anopheles gambiae, UniProt Q8T629, V81I)
T1 sequence (Q8T629 1-507 V81I): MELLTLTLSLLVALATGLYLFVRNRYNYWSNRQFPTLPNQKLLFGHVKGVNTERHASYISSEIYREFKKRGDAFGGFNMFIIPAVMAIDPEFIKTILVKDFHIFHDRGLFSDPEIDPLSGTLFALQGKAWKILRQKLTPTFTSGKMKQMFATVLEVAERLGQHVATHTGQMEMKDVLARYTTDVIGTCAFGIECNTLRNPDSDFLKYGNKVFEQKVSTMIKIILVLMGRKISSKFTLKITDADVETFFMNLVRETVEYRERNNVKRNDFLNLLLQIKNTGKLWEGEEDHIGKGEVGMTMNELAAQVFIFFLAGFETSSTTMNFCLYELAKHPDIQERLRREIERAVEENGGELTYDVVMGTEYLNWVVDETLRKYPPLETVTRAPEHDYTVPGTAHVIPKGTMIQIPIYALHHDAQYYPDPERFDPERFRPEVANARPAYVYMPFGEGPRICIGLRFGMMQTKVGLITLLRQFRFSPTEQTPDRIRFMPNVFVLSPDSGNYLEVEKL
T1 sequence (Q7QFI3 1-587 partner): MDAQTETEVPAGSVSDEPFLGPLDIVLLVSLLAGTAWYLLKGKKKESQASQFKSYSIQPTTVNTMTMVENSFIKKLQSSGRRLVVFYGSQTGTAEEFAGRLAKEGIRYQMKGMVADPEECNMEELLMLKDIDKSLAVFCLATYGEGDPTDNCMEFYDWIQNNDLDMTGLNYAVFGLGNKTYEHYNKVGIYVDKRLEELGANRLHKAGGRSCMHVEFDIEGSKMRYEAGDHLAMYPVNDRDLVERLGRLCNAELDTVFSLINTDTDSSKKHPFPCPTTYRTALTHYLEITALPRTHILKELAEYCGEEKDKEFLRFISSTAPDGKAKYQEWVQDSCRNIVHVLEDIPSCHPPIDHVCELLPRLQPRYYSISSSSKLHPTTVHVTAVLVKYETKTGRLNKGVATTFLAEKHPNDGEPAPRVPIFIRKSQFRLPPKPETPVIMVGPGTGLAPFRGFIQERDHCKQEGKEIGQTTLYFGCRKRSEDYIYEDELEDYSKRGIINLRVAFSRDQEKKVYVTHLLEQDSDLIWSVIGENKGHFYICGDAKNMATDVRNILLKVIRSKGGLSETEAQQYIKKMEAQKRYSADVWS
T1 sequence (Q86QH4 1-128 partner): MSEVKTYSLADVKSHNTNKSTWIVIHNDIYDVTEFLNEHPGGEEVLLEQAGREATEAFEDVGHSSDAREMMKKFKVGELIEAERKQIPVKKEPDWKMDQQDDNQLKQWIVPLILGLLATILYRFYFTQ

CYP6P4 = target: T2, CYP6P4 (Anopheles gambiae, UniProt Q7QCY8)
T2 sequence (Q7QCY8 1-506): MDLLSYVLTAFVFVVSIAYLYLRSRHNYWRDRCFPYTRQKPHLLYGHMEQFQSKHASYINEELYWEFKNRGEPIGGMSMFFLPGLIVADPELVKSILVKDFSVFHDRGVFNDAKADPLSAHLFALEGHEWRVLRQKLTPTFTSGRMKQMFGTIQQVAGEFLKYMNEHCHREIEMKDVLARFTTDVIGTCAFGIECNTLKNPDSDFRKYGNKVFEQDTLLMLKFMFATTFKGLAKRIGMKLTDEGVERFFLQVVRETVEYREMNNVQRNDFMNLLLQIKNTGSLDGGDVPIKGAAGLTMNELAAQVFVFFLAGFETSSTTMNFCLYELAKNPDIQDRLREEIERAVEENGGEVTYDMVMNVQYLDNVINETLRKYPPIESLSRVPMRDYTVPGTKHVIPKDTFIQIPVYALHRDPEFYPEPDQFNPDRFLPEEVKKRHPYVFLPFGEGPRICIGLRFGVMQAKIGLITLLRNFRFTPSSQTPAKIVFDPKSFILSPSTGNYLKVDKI
T2 sequence (Q86QH5 1-679 partner): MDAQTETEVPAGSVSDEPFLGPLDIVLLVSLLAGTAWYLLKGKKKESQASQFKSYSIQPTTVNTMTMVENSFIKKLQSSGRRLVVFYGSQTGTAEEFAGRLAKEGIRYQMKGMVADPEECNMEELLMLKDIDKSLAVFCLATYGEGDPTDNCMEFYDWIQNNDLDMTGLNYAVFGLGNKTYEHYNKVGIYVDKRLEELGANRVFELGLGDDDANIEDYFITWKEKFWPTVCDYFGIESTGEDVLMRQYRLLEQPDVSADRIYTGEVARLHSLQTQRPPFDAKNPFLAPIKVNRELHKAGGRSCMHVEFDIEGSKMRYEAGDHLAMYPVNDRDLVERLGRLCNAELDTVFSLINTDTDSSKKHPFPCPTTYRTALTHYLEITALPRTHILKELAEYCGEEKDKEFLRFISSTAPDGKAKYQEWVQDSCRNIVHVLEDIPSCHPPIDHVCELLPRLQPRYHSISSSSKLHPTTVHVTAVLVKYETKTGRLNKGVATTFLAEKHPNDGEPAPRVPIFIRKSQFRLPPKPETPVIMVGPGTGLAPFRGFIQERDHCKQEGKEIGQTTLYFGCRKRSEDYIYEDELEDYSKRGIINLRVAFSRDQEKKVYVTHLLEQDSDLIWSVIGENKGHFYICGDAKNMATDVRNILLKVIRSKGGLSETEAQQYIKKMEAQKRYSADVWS
T2 sequence (Q86QH4 1-128 partner): T1 sequence (Q86QH4 1-128 partner)

CYP9J5 = target: T3, CYP9J5 (Anopheles gambiae, UniProt Q5TN57)
T3 sequence (Q5TN57 1-545): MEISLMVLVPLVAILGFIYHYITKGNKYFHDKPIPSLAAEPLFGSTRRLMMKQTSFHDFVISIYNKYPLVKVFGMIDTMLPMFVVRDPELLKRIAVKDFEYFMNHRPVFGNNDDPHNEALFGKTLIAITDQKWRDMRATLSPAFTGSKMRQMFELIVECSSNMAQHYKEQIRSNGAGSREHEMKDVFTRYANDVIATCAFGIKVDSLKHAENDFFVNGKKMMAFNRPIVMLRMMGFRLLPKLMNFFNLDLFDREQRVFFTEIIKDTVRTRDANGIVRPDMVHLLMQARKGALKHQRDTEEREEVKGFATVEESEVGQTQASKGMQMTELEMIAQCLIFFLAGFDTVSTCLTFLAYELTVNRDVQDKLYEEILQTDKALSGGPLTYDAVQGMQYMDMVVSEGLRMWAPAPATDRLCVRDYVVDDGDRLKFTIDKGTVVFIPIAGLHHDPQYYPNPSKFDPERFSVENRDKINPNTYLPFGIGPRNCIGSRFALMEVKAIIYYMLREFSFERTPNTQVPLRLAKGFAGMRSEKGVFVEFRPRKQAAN
T3 sequence (Q86QH5 1-679 partner): T2 sequence (Q86QH5 1-679 partner)
T3 sequence (Q86QH4 1-128 partner): T1 sequence (Q86QH4 1-128 partner)

Sequence of CYP6M2 (Q7Q449 1-499, one chain of several): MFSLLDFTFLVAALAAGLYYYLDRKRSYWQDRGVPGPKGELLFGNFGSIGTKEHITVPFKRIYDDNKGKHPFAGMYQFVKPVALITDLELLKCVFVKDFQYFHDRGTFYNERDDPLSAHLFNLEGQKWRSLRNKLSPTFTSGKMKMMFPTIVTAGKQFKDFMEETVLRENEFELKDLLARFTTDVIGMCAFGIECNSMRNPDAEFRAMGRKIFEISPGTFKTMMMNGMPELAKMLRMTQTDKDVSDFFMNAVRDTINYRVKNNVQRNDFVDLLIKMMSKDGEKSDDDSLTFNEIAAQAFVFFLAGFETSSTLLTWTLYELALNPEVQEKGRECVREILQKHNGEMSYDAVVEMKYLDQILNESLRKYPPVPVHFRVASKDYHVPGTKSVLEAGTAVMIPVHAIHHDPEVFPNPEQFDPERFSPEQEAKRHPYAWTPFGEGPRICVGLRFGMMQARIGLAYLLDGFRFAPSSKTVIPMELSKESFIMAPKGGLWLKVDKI

SMILES | Inhibition ratio (%): reduction of PPF depletion caused by PBO (CYP6M2) [%] | Inhibition ratio (%): reduction of PPF depletion caused by PBO (CYP6P2) [%] | Inhibition ratio (%): reduction of PPF depletion caused by PBO (CYP6P4) [%] | Inhibition ratio (%): reduction of PPF depletion caused by PBO (CYP9J5) [%] | % PPF depletion + PBO (CYP6M2; Anopheles gambiae, pH 7.4) [%] | % PPF depletion −PBO (CYP6M2; Anopheles gambiae, pH 7.4) [%] | % PPF depletion + PBO (CYP6P2; Anopheles gambiae, pH 7.4) [%] | % PPF depletion −PBO (CYP6P2; Anopheles gambiae, pH 7.4) [%] | % PPF depletion + PBO (CYP6P4; Anopheles gambiae, pH 7.4) [%] | % PPF depletion −PBO (CYP6P4; Anopheles gambiae, pH 7.4) [%] | % PPF depletion + PBO (CYP9J5; Anopheles gambiae, pH 7.4) [%]
CCCCOCCOCCOCc1cc2c(cc1CCC)OCO2 [PBO, piperonyl butoxide] | 95.3 | 91.0 | 94.6 | 99.6 | – | – | – | – | – | – | –
CC(COc1ccc(Oc2ccccc2)cc1)Oc1ccccn1 (centres unmarked) [PPF, pyriproxyfen] | – | – | – | – | 1.44 ± 0.67 | 30.93 ± 4.65 | 6.45 ± 3.22 | 58.03 ± 1.35 | 4.44 ± 1.99 | 81.63 ± 0.63 | 0.08 ± 0.15
